The text below walks through data of patent US9598398B2, “Heterocyclic compound” (TAKEDA PHARMACEUTICAL COMPANY LIMITED, priority 2013, dated 2017).

In assay [1] the target is T1, human CH24H (Homo sapiens, UniProt Q9Y6A2).
T1 construct: Using Full-Length Mammalian Gene Collection No. 4819975 (Invitrogen) as a template; made in house; host or cells: FreeStyle 293-F cells, transient transfection with pcDNA3.1(+)/hCH24H; crude lysate supernatant
Nature of the assay: Measurement of CH24H inhibitory activity (24-HC produced from [14C] cholesterol by human CH24H lysate). It counts as biochemical. Particulars: test compound 1 μM, [14C] cholesterol 15 μM, 37° C., 5 hr, read-out: Inhibitory Rate in 1 μM (%). The protocol:
A plasmid DNA for expressing human CH24H in a FreeStyle 293 cell was produced as follows. Using Full-Length Mammalian Gene Collection No. 4819975 (Invitrogen) as a template, and the following two kinds of synthesized DNAs:
PCR was performed to amplify 91-1625 bp region of human CH24H (BCO22539). The obtained fragment was cloned using TOPO TA Cloning Kit (Invitrogen). The obtained fragment was subcloned to pcDNA3.1(+) digested with BamHI and XhoI to give a plasmid DNA for human CH24H expression (pcDNA3.1(+)/hCH24H).
The expression of human CH24H was performed using FreeStyle 293 Expression System (Invitrogen). According to the manual attached to FreeStyle 293 Expression System and using the plasmid DNA for human CH24H expression (pcDNA3.1(+)/hCH24H) constructed in Experimental Example 1, a transient expression using FreeStyle 293-F cell was performed. After transfection, the cells were cultured at 37° C., 8% CO2 with shaking at 125 rpm for 2 days. The cells were collected by centrifugation, and suspended in a suspension buffer (100 mM potassium phosphate (pH 7.4), 0.1 mM EDTA, 1 mM DTT, 20% Glycerol). The suspended product was disrupted by a polytron homogenizer (manufactured by Kinematica), and centrifuged at 9000×g for 10 min, and the supernatant was collected. The collected supernatant was cryopreserved (−80° C.) as a human CH24H lysate standard product.
For the measurement of CH24H inhibitory activity, using the human CH24H lysate prepared in Experimental Example 2, the amount of 24-HC produced from cholesterol by catalytic activity of CH24H was measured in the presence of a test compound, and compared with that measured in the absence of the test compound. That is, a test compound solution at various concentrations was mixed with a reaction buffer (50 mM potassium phosphate containing 0.1% BSA and Complete, EDTA-free, pH 7.4) and human CH24H lysate. Then, [^14C] cholesterol (53 mCi/mmol specific activity, 15 μM) was added, and CH24H reaction was performed at 37° C. for 5 hr. After completion of the reaction, a quenching solution consisting of chloroform/methanol/distilled water (2:2:1 v/v) was added, and the resulting 24-HC was extracted by shaking. The extract was applied to silica gel thin layer chromatography (ethyl acetate:toluene=4:6), and the obtained ^14C-24HC fraction was measured with BAS2500 (Fujifilm Corporation).
The inhibitory rate (%) was calculated from the ratio of radioactivity in the presence of a test compound relative to the radioactivity in the absence of the test compound.

Assay [2] relates to 24-HC in the brain extract. Nature of the assay: Quantification test of 24-HC in mouse brain after repeated oral administration. It is filed as in vivo. Particulars: female C57BL/6N mice, brain 24-HC at 16 hours after the third administration, relative to control group as 100%. Here is the method:
Animals used were 6-week-old female C57BL/6N mice (3 mice/group). A test compound was suspended in a 0.5% aqueous methylcellulose [133-14255 WAKO] solution (1 mg/mL). The body weight of the mice was measured, and the solution was forcibly administered orally and repeatedly once a day for 3 days. At 16 hours after the third administration, half of the brain was harvested, and the amount of 24-HC was measured.
The wet weight of the brain was measured, and the brain was homogenized with 4-fold amount of saline. This solution was used as a brain extract. The 24-HC in the brain extract was extracted with an acetonitrile solution (98% acetonitrile, 1.98% methanol, 0.02% formic acid), and quantified by HPLC. The average value of 24-HC amount was calculated and the results are shown in relative values with the control group as 100%.

The mark [3] stands for this setting: 30 mg/kg orally once a day for 3 days.
The mark [4] stands for this setting: 10 mg/kg orally once a day for 3 days.

T1 sequence (Q9Y6A2 whole entry): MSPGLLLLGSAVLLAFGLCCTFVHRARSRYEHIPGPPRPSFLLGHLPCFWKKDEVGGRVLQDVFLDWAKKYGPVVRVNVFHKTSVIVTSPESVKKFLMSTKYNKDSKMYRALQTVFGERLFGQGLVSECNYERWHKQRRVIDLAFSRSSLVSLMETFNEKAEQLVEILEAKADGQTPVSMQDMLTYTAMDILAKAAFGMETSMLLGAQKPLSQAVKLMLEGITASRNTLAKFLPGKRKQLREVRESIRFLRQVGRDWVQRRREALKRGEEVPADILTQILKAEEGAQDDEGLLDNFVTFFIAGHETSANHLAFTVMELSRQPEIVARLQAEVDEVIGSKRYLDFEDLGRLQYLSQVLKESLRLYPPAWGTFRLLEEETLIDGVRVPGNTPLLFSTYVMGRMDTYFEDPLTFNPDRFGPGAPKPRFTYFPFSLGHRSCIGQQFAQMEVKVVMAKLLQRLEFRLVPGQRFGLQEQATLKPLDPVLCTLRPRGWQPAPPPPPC

On to `COc1ccc(CN2CCN(C(=O)c3cc(C)ccc3-c3ccncc3)CC2)cc1` [Example 3, (4-(4-methoxybenzyl)piperazin-1-yl)(5-methyl-2-(pyridin-4-yl)phenyl)methanone], for which, in assay [1], the inhibition at 1 µM is 87%. Same read-out and setting: next, `c1ccc(CN2CCC(Oc3cccnc3-c3ccncc3)CC2)cc1` [Example 4, 3-((1-benzylpiperidin-4-yl)oxy)-2,4′-bipyridine]: 86%.

As to `Fc1ccc(OC2CCN(Cc3ccccc3)CC2)c(-c2ccncc2)c1` [Example 5, 4-(2-((1-benzylpiperidin-4-yl)oxy)-5-fluorophenyl)pyridine], the inhibition at 1 µM in assay [1] is 92%.

Take `c1ccc(CN2CCC(Oc3ccccc3-c3ccncn3)CC2)cc1` [Example 15, 4-(2-((1-benzylpiperidin-4-yl)oxy)phenyl)pyrimidine]: in assay [1], the inhibition at 1 µM was 94%.

As for `Cn1ccnc1CN1CCC(Oc2ccccc2-c2ccncc2)CC1` [Example 16, 4-(2-((1-((1-methyl-1H-imidazol-2-yl)methyl)piperidin-4-yl)oxy)phenyl)pyridine], in assay [1], the inhibition at 1 µM came out at 93%. Same read-out and setting: next, `CN(C)C(=O)CN1CCC(Oc2ccccc2-c2ccncc2)CC1` [Example 20, N,N-dimethyl-2-(4-(2-(pyridin-4-yl)phenoxy)piperidin-1-yl)acetamide]: 83%. Consider `Cn1cc(CN2CCC(Oc3cccnc3-c3ccncc3)CC2)cn1` [Example 22, 3-((1-((1-methyl-1H-pyrazol-4-yl)methyl)piperidin-4-yl)oxy)-2,4′-bipyridine], for which the “Brain 24-HC level relative to control (%)” value in assay [2] (setting [3]) came out at 77%. In assay [1], the inhibition at 1 µM came to 89%. `COc1ccc(CN2CCN(S(=O)(=O)c3ccc(F)cc3-c3ccncc3)CC2)cc1` [Example 29, 1-((4-fluoro-2-(pyridin-4-yl)phenyl)sulfonyl)-4-(4-methoxybenzyl)piperazine]: the inhibition at 1 µM in assay [1] was 59%.

Regarding `FC1(F)CN(Cc2ccccc2)CCC1Oc1ccccc1-c1ccncn1` (stereo not shown) [Example 34, 4-(2-((1-benzyl-3,3-difluoropiperidin-4-yl)oxy)phenyl)pyrimidine], the inhibition at 1 µM in assay [1] worked out at 91%. On the same count and under the same terms, then `O=C(CN1CCC(Oc2cccnc2-c2ccncc2)CC1)N1CCOCC1` [Example 38, 2-(4-(2,4′-bipyridin-3-yloxy)piperidin-1-yl)-1-(morpholin-4-yl)ethanone], with 84%. Regarding `Cn1cc(CN2CCC(Oc3nccnc3-c3ccncc3)CC2)cn1` [Example 40, 2-((1-((1-methyl-1H-pyrazol-4-yl)methyl)piperidin-4-yl)oxy)-3-(pyridin-4-yl)pyrazine], the “Brain 24-HC level relative to control (%)” value in assay [2] (setting [4]) amounted to 84%. Moreover, the inhibition at 1 µM in assay [1] stood at 88%. On the same counts, the results for `c1cnc(-c2ccncc2)c(OC2CCN(Cc3cscn3)CC2)c1` [Example 47, 3-((1-(1,3-thiazol-4-ylmethyl)piperidin-4-yl)oxy)-2,4′-bipyridine] are 75% and 90%. On to `CCN(CC)C(=O)CN1CCC(Oc2cccnc2-c2ccncc2)CC1` [Example 49, 2-(4-(2,4′-bipyridin-3-yloxy)piperidin-1-yl)-N,N-diethylacetamide], for which the inhibition at 1 µM in assay [1] worked out at 85%. `CN(C)C(=O)CN1CCC(Oc2nccnc2-c2ccncc2)C(F)(F)C1` (stereo not shown) [Example 54, 2-(3,3-difluoro-4-((3-(pyridin-4-yl)pyrazin-2-yl)oxy)piperidin-1-yl)-N,N-dimethylacetamide]: the “Brain 24-HC level relative to control (%)” value in assay [2] (setting [4]) is reported as 73%. In addition, the inhibition at 1 µM in assay [1] was 79%.

For the compound `O=C1CN(Cc2ccc(F)cc2)CCN1Cc1cccnc1-c1ccncc1` [Example 55, 1-(2,4′-bipyridin-3-ylmethyl)-4-(4-fluorobenzyl)piperazin-2-one], the inhibition at 1 µM in assay [1] was found to be 53%. Same read-out and setting: next, `c1ccc(CN2CCC(Oc3cccnc3-c3ccncc3)C2)cc1` (stereo not shown) [Example 61, 3-((1-benzylpyrrolidin-3-yl)oxy)-2,4′-bipyridine]: 89%; `COc1ccc(S(=O)(=O)N2CCC(Oc3cccnc3-c3ccncc3)C2)cc1` (stereo not shown) [Example 64, 3-((1-((4-methoxyphenyl)sulfonyl)pyrrolidin-3-yl)oxy)-2,4′-bipyridine]: 92%. Same read-out and setting: then `O=C(C1CC1)N1CCC(Oc2cccnc2-c2ccncc2)CC1` [Example 67, (4-(2,4′-bipyridin-3-yloxy)piperidin-1-yl)(cyclopropyl)methanone], with 80%. In the case of `Cn1cc(S(=O)(=O)N2CCC(Oc3cccnc3-c3ccncc3)C2)cn1` (stereo not shown) [Example 71, 3-((1-((1-methyl-1H-pyrazol-4-yl)sulfonyl)pyrrolidin-3-yl)oxy)-2,4′-bipyridine], the “Brain 24-HC level relative to control (%)” value in assay [2] (setting [3]) was 86%. Moreover, in assay [1], the inhibition at 1 µM was found to be 89%.

As for `COc1ccc(CC(=O)N2CCC(Oc3ccccc3-c3ccncn3)CC2)cc1` [Example 74, 2-(4-methoxyphenyl)-1-(4-(2-(pyrimidin-4-yl)phenoxy)piperidin-1-yl)ethanone], the inhibition at 1 µM in assay [1] was 88%.

Take `Cn1cc(S(=O)(=O)N2CCC(Oc3cc(F)ccc3-c3ccncn3)C2)cn1` (stereo not shown) [Example 84, 4-(4-fluoro-2-((1-((1-methyl-1H-pyrazol-4-yl)sulfonyl)pyrrolidin-3-yl)oxy)phenyl)pyrimidine]: the inhibition at 1 µM in assay [1] came to 87%. Consider `O=S(=O)(N1CCOCC1)N1CCC(Oc2cccnc2-c2ccncc2)C1` (stereo not shown) [Example 85, 3-((1-(morpholin-4-ylsulfonyl)pyrrolidin-3-yl)oxy)-2,4′-bipyridine], for which the inhibition at 1 µM in assay [1] stood at 84%. Same read-out and setting: then `CCS(=O)(=O)N1CCC(Oc2cc(F)ccc2-c2ccncc2)C1` (stereo not shown) [Example 88, 4-(2-((1-(ethylsulfonyl)pyrrolidin-3-yl)oxy)-4-fluorophenyl)pyridine], with 82%; and `O=S(=O)(c1ccc(F)cc1)N1CCC(Oc2nccnc2-c2ccncc2)C1` (stereo not shown) [Example 110, 2-((1-((4-fluorophenyl)sulfonyl)pyrrolidin-3-yl)oxy)-3-(pyridin-4-yl)pyrazine], with 89%; and `O=S(=O)(c1ccccc1)N1CCC(Oc2cccnc2-c2ccncc2)C1` (stereo not shown) [Example 120, 3-((1-(phenylsulfonyl)pyrrolidin-3-yl)oxy)-2,4′-bipyridine], with 94%. Consider `c1ccc(CN2CCC(Oc3cccnc3-c3ccncc3)CC2)nc1` [Example 124, 3-((1-(pyridin-2-ylmethyl)piperidin-4-yl)oxy)-2,4′-bipyridine], for which, in assay [1], the inhibition at 1 µM is 95%.
